Experimental data: patent publication US20240368122A1, “JAK2 INHIBITORS AND METHODS OF USE THEREOF” (RELAY THERAPEUTICS, INC., priority 2021, published 2024)
Read-outs that look alike come from different tables or passages of the source.

What was measured:
[1] = target: T1, JAK2 JH2 WT (V536-D812) [W659A, W777A, F794H solubilizing mutations] (Homo sapiens, UniProt O60674, F794H/W659A/W777A); test: Surface Plasmon Resonance (SPR) binding assay, JAK2 JH2 domain
T1 construct: **JAK2 JH2 WT (V536-D812) [W659A, W777A, F794H solubilizing mutations]; C-thrombin-avi-His6; thrombin cleavage site (C); His6 (C); purchased Biortus
T1 sequence (O60674 536-812 W659A/W777A/F794H): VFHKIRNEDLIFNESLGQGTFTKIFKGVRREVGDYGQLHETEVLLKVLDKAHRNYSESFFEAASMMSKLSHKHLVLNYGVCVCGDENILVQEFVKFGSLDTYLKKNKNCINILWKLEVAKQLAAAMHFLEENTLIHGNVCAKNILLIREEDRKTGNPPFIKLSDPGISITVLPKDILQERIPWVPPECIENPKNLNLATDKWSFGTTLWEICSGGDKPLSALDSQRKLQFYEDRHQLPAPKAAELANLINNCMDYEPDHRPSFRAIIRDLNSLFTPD
Method in brief: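 Kinetics came from 1:1 fits of single-cycle runs at 20 °C: four 3-fold dilutions from 5 uM for JH1 or 500 nM for JH2, 60 s association, and 300 s or 1200 s dissociation respectively. Protein was freshly captured per compound in the presence of 10 uM stabilizer compound, with running buffer of pH 7.5 HEPES/NaCl/glycerol/DTT plus 2% DMSO.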

[2] = tested on: TF1 JAK2 V617F STAT5 reporter; test: Cellular TF1 STAT5 assay (luciferase reporter), JAK2 V617F; type: cell-based; conditions: read-out: Cell PD TF1 V617F STAT5 (IC50)
Method in brief: (§1)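 TF1 V617F JAK2 reporter cells, 10k/well; 10-pt 1:3 dose response from 10 mM 1000× DMSO stock; 18-20 h, 37 °C, 5% CO2; ONE-glo, 10 min RT; luminescence. Triplicate plates, DMSO vehicle.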

[3] = tested on: TF1 JAK2 V617F STAT3 reporter; test: Cellular TF1 STAT3 assay (luciferase reporter), JAK2 V617F; type: cell-based; conditions: read-out: Cell PD-TF1 JAK2 V617F STAT3 (IC50)
Method in brief: as §1

[4] = Homo sapiens, TF-1, TF1 cells, JAK2 V617F

Compound | Kd ([1]; SPR, JAK2 JH2 domain) | IC50 ([2]; TF1 JAK2 V617F) | IC50 ([3]; TF1 JAK2 V617F) | Kd [1] | IC50 [2, 4] | IC50 [3, 4]
CNC(=O)c1nnc(NC(=O)C2CC2)cc1Nc1cccc(-c2ccc(C(=O)N(C)Cc3cnc4ccc(Cl)cn34)nc2)c1OC [Compound 31] | 0.01 to 10 nM | 500 to 5000 nM | 500 to 5000 nM |  |  | 
CNC(=O)c1nnc(NC(=O)C2CC2)cc1Nc1cccc(-c2cnn(C3CN(Cc4cccc(C(F)(F)F)n4)C3)c2)c1OC [Compound 200] |  |  |  | 0.01 to 10 nM | 50 to 500 nM | 50 to 500 nM
CNC(=O)c1nnc(NC(=O)C2CC2)cc1Nc1cccc(-c2cnn(C3CN(Cc4cccc(C(=O)C(C)C)n4)C3)c2)c1OC [Compound 309] |  |  |  | 0.01 to 10 nM | 50 to 500 nM | 500 to 5000 nM
CNC(=O)c1nnc(NC(=O)C2CC2)cc1Nc1cccc(-c2cnn(C3CN(Cc4cccc(C)n4)C3)c2)c1OC [Compound 106] | 0.01 to 10 nM | 50 to 500 nM | 50 to 500 nM |  |  | 
CNC(=O)c1nnc(NC(=O)C2CC2)cc1Nc1cccc(-c2cn(C3CN(Cc4cccc(Cl)n4)[C@@H]3C)nn2)c1OC (stereo in doubt) [Compound 239] |  |  |  | 0.01 to 10 nM | 500 to 5000 nM | 500 to 5000 nM
CNC(=O)c1nnc(NC(=O)C2CC2)cc1Nc1cccc(-c2cnn(C3CN(Cc4nccc(C)n4)C3)c2)c1OC [Compound 77] | 0.01 to 10 nM | 500 to 5000 nM | 50 to 500 nM |  |  | 
CNC(=O)c1nnc(NC(=O)C2CC2)cc1Nc1cccc(-c2ccc(C(=O)N(C)Cc3nccs3)nc2)c1OC [Compound 58] | 0.01 to 10 nM | 500 to 5000 nM | 500 to 5000 nM |  |  | 
CNC(=O)c1nnc(NC(=O)C2CC2)cc1Nc1cccc(-c2cnc(C(=O)N(CCOC)Cc3cccn(C)c3=O)c(F)c2)c1OC [Compound 21] | 0.01 to 10 nM | 500 to 5000 nM | 500 to 5000 nM |  |  | 
CNC(=O)c1nnc(NC(=O)C2CC2)cc1Nc1cccc(-c2cn(C3CN(Cc4ccccn4)C3)nc2C)c1OC [Compound 184] | 0.01 to 10 nM | 500 to 5000 nM | 500 to 5000 nM |  |  | 
CNC(=O)c1nnc(NC(=O)C2CC2)cc1Nc1cccc(-c2cn(C3CN(Cc4cccc(C#N)n4)C3)nc2C)c1OC [Compound 185] | 0.01 to 10 nM | 500 to 5000 nM | 500 to 5000 nM |  |  | 
CNC(=O)c1nnc(NC(=O)C2CC2)cc1Nc1cccc(-c2cnn(C3CN(Cc4cccc(C=O)n4)C3)c2)c1OC [Compound 324] |  |  |  | 0.01 to 10 nM | 50 to 500 nM | 50 to 500 nM
CNC(=O)c1nnc(NC(=O)C2CC2)cc1Nc1ccc(C)c(-c2cn([C@@H]3CN(Cc4cccc(C)n4)[C@H]3C)nn2)c1OC (racemic) [Compound 270] |  |  |  | 0.01 to 10 nM | 500 to 5000 nM | 500 to 5000 nM
CNC(=O)c1nnc(NC(=O)C2CC2)cc1Nc1cccc(-c2cnn(C3CC(Oc4cccc(C#N)n4)C3)c2)c1OC (stereo not drawn) [Compound 372] |  |  |  | 0.01 to 10 nM | 500 to 5000 nM | 500 to 5000 nM
CNC(=O)c1nnc(NC(=O)C2CC2)cc1Nc1cccc(-c2ccc(C(=O)N(C)Cc3cscn3)nc2)c1OC [Compound 57] | 0.01 to 10 nM | 50 to 500 nM | 50 to 500 nM |  |  | 
CNC(=O)c1nnc(NC(=O)C2CC2)cc1Nc1cccc(-c2cnn(C3CN(Cc4cccn5nccc45)C3)c2)c1OC [Compound 303] |  |  |  | 0.01 to 10 nM | 50 to 500 nM | 50 to 500 nM
CNC(=O)c1nnc(NC(=O)C2CC2)cc1Nc1cccc(-c2cnn([C@H]3CCN(Cc4ccccn4)C3)c2)c1OC (single isomer, unassigned) [Compound 333] |  |  |  | 0.01 to 10 nM | 500 to 5000 nM | 500 to 5000 nM
CNC(=O)c1nnc(NC(=O)C2CC2)cc1Nc1cc(F)cc(-c2ccc(C(=O)N(C)Cc3ccn(C)n3)nc2)c1OC [Compound 97] | 0.01 to 10 nM | 50 to 500 nM | 50 to 500 nM |  |  | 
[2H]C([2H])(c1cccnn1)N1CC(n2cc(-c3cccc(Nc4cc(NC(=O)C5CC5)nnc4C(=O)NC)c3OC)cn2)C1 [Compound 408] | 0.01 to 10 nM |  |  |  | 50 to 500 nM | 50 to 500 nM

Compound | Kd ([1]; SPR, JAK2 JH2 domain) | IC50 ([2]; TF1 JAK2 V617F) | IC50 ([3]; TF1 JAK2 V617F) | Kd [1] | IC50 [2, 4] | IC50 [3, 4]
CCN(C)C(=O)c1cccc(CN2CC(n3cc(-c4cccc(Nc5cc(NC(=O)C6CC6)nnc5C(=O)NC)c4OC)cn3)C2)n1 [Compound 354] |  |  |  | 0.01 to 10 nM | 10 to 50 nM | 50 to 500 nM
CNC(=O)c1nnc(NC(=O)C2CC2)cc1Nc1cccc(-c2cnn(C3CN(Cc4nnc(C)s4)C3)c2)c1OC [Compound 144] | 0.01 to 10 nM | 500 to 5000 nM | 500 to 5000 nM |  |  | 
CNC(=O)c1nnc(NC(=O)C2CC2)cc1Nc1cccc(-c2ccc(C(=O)N(C)Cc3nc(C)no3)nc2)c1OC [Compound 102] | 0.01 to 10 nM | 500 to 5000 nM | 500 to 5000 nM |  |  | 
CNC(=O)c1nnc(NC(=O)C2CC2)cc1Nc1cccc(-c2cnc(C(=O)N(C)Cc3ccccn3)nc2)c1OC [Compound 13] | 0.01 to 10 nM | 500 to 5000 nM | 500 to 5000 nM |  |  | 
CNC(=O)c1nnc(NC(=O)C2CC2)cc1Nc1cccc(-c2ccc(C(=O)N(C)Cc3ccns3)nc2)c1OC [Compound 59] | 0.01 to 10 nM | 5000 to 100000 nM | 500 to 5000 nM |  |  | 
CNC(=O)c1nnc(NC(=O)C2CC2)cc1Nc1cccc(-c2ccc(C(=O)N(C)Cc3cc(C#N)ccn3)c(F)c2)c1OC [Compound 131] | 0.01 to 10 nM | 500 to 5000 nM | 500 to 5000 nM |  |  | 
CNC(=O)c1nnc(NC(=O)C2CC2)cc1Nc1cccc(-c2ccc(C(=O)N(C)Cc3cn(C)nc3OC)nc2)c1OC [Compound 257] |  |  |  | 0.01 to 10 nM | 50 to 500 nM | 50 to 500 nM
CNCc1cnc(CN(C)C(=O)c2ccc(-c3cccc(Nc4cc(NC(=O)C5CC5)nnc4C(=O)NC)c3OC)cn2)s1 [Compound 282] |  |  |  | 0.01 to 10 nM | 500 to 5000 nM | 500 to 5000 nM
CNC(=O)c1nnc(NC(=O)C2CC2)cc1Nc1cccc(-c2ccc(C(=O)N(C)Cc3ccccn3)nc2)c1OC [Compound 19] | 0.01 to 10 nM | 500 to 5000 nM | 500 to 5000 nM |  |  | 
CNC(=O)c1nnc(NC(=O)C2CC2)cc1Nc1cccc(-c2cnn(C3CN(Cc4cccc(C5(C)COC5)n4)C3)c2)c1OC [Compound 369] |  |  |  | 0.01 to 10 nM | 50 to 500 nM | 50 to 500 nM
CNC(=O)c1nnc(NC(=O)C2CC2)cc1Nc1cccc(-c2cnn(C3CN(Cc4cccc(C(C)=O)n4)C3)c2)c1OC [Compound 307] |  |  |  | 0.01 to 10 nM | 50 to 500 nM | 50 to 500 nM
CNC(=O)c1nnc(NC(=O)C2CC2)cc1Nc1cccc(-c2cnn(C3CN(C(C)c4ccccn4)C3)c2)c1OC (racemic) [Compound 127] | 0.01 to 10 nM | 500 to 5000 nM | 500 to 5000 nM |  |  | 
CNC(=O)c1nnc(NC(=O)C2CC2)cc1Nc1cccc(-c2cnn(C3CN(Cc4cccc(C(C)(C)C#N)n4)C3)c2)c1OC [Compound 277] |  |  |  | 0.01 to 10 nM | 50 to 500 nM | 50 to 500 nM
CNC(=O)c1nnc(NC(=O)C2CC2)cc1Nc1cccc(-c2cn([C@H]3CN(Cc4cccc(C)n4)[C@@H]3C)nn2)c1OC (stereo in doubt) [Compound 235] |  |  |  | 0.01 to 10 nM | 50 to 500 nM | 50 to 500 nM
CNC(=O)c1nnc(NC(=O)C2CC2)cc1Nc1cccc(-c2ccc(C(=O)N(C)CC3Cc4ccccc4CO3)nc2)c1OC (stereo not drawn) [Compound 54] | 0.01 to 10 nM | 5000 to 100000 nM | 500 to 5000 nM |  |  | 
CNC(=O)c1nnc(NC(=O)C2CC2)cc1Nc1cccc(-c2cnn(C3CN(Cc4cccc(F)c4F)C3)c2)c1OC [Compound 129] | 10 to 50 nM | 500 to 5000 nM | 500 to 5000 nM |  |  | 
CNC(=O)c1nnc(NC(=O)C2CC2)cc1Nc1cccc(-c2ccc(C(=O)N(C)Cc3ccn(C)n3)c(F)c2)c1OC [Compound 132] | 0.01 to 10 nM | 500 to 5000 nM | 500 to 5000 nM |  |  | 
